Experimental data reported in doi:10.1101/2020.01.28.923938v1 (biorxiv, 2020).

Molecular target: CYP2D6 (Homo sapiens, UniProt P10635)
Assay: in situ kinetics of dextrorphan formation in HLM, ADE-OPI-MS
Format: biochemical

Chain of CYP2D6 (P10635 whole entry): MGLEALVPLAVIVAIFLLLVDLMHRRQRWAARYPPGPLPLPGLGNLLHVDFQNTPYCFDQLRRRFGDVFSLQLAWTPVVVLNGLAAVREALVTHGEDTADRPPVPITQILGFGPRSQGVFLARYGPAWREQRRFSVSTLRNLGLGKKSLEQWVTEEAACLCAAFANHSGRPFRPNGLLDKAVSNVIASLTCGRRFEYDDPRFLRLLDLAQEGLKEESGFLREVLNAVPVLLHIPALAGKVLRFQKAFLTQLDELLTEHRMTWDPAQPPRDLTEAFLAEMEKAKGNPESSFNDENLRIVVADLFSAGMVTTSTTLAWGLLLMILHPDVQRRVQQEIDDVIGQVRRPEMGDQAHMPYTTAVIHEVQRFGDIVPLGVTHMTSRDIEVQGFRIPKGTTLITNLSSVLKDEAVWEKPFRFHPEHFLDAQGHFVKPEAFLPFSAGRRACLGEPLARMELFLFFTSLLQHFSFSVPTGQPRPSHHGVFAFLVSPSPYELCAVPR

With `COc1ccc2c(c1)[C@]13CCCC[C@@H]1[C@H](C2)N(C)CC3` [dextromethorphan] the Km was 3.79 µM.
